Where two headings read alike, the source gives them in different places.
Molecular target: T1, porcine pancreatic lipase (Sus scrofa, UniProt P00591)
T1 construct: gene PNLIP
T1 sequence (P00591 1-450): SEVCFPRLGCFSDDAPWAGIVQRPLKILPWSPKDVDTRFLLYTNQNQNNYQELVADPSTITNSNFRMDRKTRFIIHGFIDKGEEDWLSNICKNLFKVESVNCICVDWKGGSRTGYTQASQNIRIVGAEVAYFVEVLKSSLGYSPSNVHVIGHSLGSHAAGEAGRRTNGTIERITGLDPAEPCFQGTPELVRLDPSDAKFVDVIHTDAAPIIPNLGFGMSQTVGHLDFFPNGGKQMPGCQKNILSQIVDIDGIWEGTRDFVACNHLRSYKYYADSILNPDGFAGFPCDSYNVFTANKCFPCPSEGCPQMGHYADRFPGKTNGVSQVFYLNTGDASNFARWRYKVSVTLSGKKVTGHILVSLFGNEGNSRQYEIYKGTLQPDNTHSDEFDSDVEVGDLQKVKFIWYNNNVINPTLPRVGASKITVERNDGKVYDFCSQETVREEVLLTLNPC
Assay: colorimetric lipase activity assay (Lipase Kit S, BLAB/DTNB, […] nm) with porcine pancreas lipase Type II
Assay type: biochemical

IC50 (read-out: IC50)	SMILES	IC50
41.4 µM	CCCCCCCC/C=C\CCCCCCCC(=O)O [oleic acid]	
	CCCCC/C=C\C/C=C\CCCCCCCC(=O)O [linoleic acid]	82.4 µM
